6 compounds from PMC9848270, “Synthesis and biological assessment of indole derivatives containing penta-heterocycles scaffold as novel anticancer agents towards A549 and K562 cells” (Journal of Enzyme Inhibition and Medicinal Chemistry, 2023) can be followed below.

SMILES strings stand for the structures.

In data set [1] the test system is human non-small cell lung cancer cells (A549). Briefly: MTT antiproliferative assay, A549. In kind it is cell-based. The following applies: for inhibition at 10 µM: A549, 10 μM, read-out: Inhibition rate, A549; for IC50: A549, 48 h, MTT assay, 48 h, read-out: In vitro cytotoxicity IC50, A549. The protocol:
(§1) A549, PC-3, HepG2 and K562 cells were purchased from the Kunming cell bank of the Chinese academy of sciences. All cell lines were cultured in DMEM or RPMI 1640 complete medium. Logarithmic growth cells were cultured in 96-well plates at a concentration of 10^4 cells per well and pre-cultured for 24 h before adding test compounds. The MTT test with 5-Fluorouracil and Gefitinib as reference compounds were used to evaluate antiproliferative activity of target compounds in four human cancer line cells. For the estimation of the inhibition concentration (IC50), the Graph Pad Prism (GraphPad Software, San Diego, CA) was used.
(In general: Tetrazolium assays rely on reduction of a dye to a coloured formazan, in cell work by metabolically active cells.)

Data set [2] has as its system human prostate cancer cells (PC-3). Description: MTT antiproliferative assay, PC-3. The data set is classed as cell-based. The following applies: Homo sapiens; for IC50: 48 h, MTT assay, read-out: In vitro cytotoxicity IC50, PC-3; for inhibition at 10 µM: read-out: Inhibition rate, PC-3. The protocol:
as §1

For data set [3], the system named is human liver cancer cells (HepG2). Briefly: MTT antiproliferative assay, HepG2. The data set is classed as cell-based. The following applies: for inhibition at 10 µM: read-out: Inhibition rate, HepG2; for IC50: MTT assay, 48 h, read-out: In vitro cytotoxicity IC50, HepG2. The protocol: as §1
Data set [4] has as its system human chronic myeloid leukaemia cells (K562). Description: MTT antiproliferative assay, K562. The following applies: for inhibition at 10 µM: K562, 10 μM, read-out: Inhibition rate, K562; for IC50: K562, 48 h, MTT assay, 48 h, read-out: In vitro cytotoxicity IC50, K562. The data set is classed as cell-based. The protocol: as §1
Data set [5] is described as follows: MTT cytotoxicity, normal cell line HEK293. In kind it is cell-based, human. The following applies: human, HEK293 cells (normal cell line); MTT assay, 48 h; normal cell line; CC50; read-out: In vitro cytotoxicity IC50, HEK293.
Data set [6] relates to normal cell line (HEK293). Briefly: MTT cytotoxicity, normal cell line HEK293. The following applies: Homo sapiens, HEK293; 10 μM; read-out: Inhibition rate, HEK293. The data set is classed as cell-based, human.
In data set [7] the test system is A549 cells. Briefly: Annexin V-FITC/PI apoptosis flow cytometry, A549. The data set is classed as cell-based, human. The following applies: 4 µM, 48 h. Here is the method: (§2) Annexin-V/FITC assay, after the adherent cells grew stably in the 6-well plate, each group was reacted with different concentrations of compound solutions for 48 h. Then, cells were collected by trypsinization without EDTA, rinsed twice with PBS, followed by the Annexin V-FITC/PI apoptosis detection kit (Solarbio, Bei Jing, China) according to the kit instructions, flow cytometry by BD FACSCalibur instrument (American BD Company Shanghai Co., Ltd.).
A general note: A flow cytometer gives signals particle by particle.

The test system of data set [8] is K562 cells. Briefly: Annexin V-FITC/PI apoptosis flow cytometry, K562. Also on record: total numbers of apoptotic cells, K562: dose or concentration left out as unconfirmed. In kind it is cell-based, human. The following applies: 48 h. The protocol:
as §2

Data set [9] deals with A549 cells. Briefly: Cell cycle analysis (PI staining, flow cytometry), A549. In kind it is cell-based, human. The following applies: 4 µM, 48 h. The protocol: (§3) A549 or K562 cells were separately seeded at 4.0 × 10^5cells/well in six-well plates and incubated for 24 h until adherent. […] After treatment, the cells were collected, and washed twice with pre-cooled PBS and then fixed with ice-cold ethanol (70%), subsequently kept 4 °C for overnight. After washing twice with PBS, cells were incubated at 37 °C with 100 µ L RNase A for 30 min. After this, cells were incubated with 400 µL PI for 30 min at 4 °C. Finally, the cell cycle distribution of compound 10 b was analysed via the BD FACSCalibur flow cytometry (American BD Corporation Shanghai Co. Ltd.)

The test system of data set [10] is K562 cells. Description: Cell cycle analysis (PI staining, flow cytometry), K562. The following applies: 4 µM, 48 h. In kind it is cell-based, human. The protocol: as §3
The subject of data set [11] is A549, PC-3, HepG2 and K562 cells. Description: MTT antiproliferative assay, four cancer cell lines taken together. The data set is classed as cell-based, human. Here is the method: as §1

As for `O=c1[nH]cc(F)c(=O)[nH]1` [5-Fluorouracil, reference compound], in data set [1], the inhibition – broadly, the drop in the measured response relative to a control, in per cent – at 10 µM was found to be 54.3 ± 1.07% and the IC50 (usually the point on the concentration scale where inhibition reaches its midpoint) is 3.46 ± 0.45 µM. For the same compound, in data set [2], the half-maximal inhibitory concentration (IC50) came out at 10.9 ± 3.4 µM and the inhibition at 10 µM came to 37 ± 6.18%. For the same compound, in data set [3], the inhibition at 10 µM turned out to be 26.4 ± 0.513% and the IC50 turned out to be 15 ± 3.87 µM. Besides, in data set [4], the inhibition at 10 µM came to 39.9 ± 6.44% and the IC50 is 12.3 ± 2.5 µM. Also, in data set [5], the IC50 at 48 h was 3.62 ± 0.25 µM. For the same compound, the inhibition at 10 µM in data set [6] amounted to 72.1 ± 3.71%. For the same compound, the “total numbers of apoptotic cells, A549” value in the data set with A549 cells [7] is reported as 28.3%. For the same compound, the “total numbers of apoptotic cells, K562” value in the data set with K562 cells [8] worked out at 13.4%. Besides, in the data set with A549 cells [9], the “DNA contents of the live population, G0/G1 phase, A549” value was 46.87%; the “DNA contents of the live population, G2/M phase, A549” value was determined as 13.13%; the “DNA contents of the live population, S phase, A549” value turned out to be 34.63%. In addition, in the data set on K562 cells [10], the “DNA contents of the live population, G0/G1 phase, K562” value was determined as 30.93%; the “DNA contents of the live population, G2/M phase, K562” value was found to be 16.07%; the “DNA contents of the live population, S phase, K562” value is given as 48.27%.

As for `O=C(CSc1nnc(-c2ccccc2Br)s1)Nc1cc(-c2c[nH]c3ccccc23)n[nH]1` [Compound 10c, N-(3-(1H-indol-3-yl)-1H-pyrazol-5-yl)-2-((5–(2-bromophenyl)-1,3,4-thiadiazol-2-yl)thio)acetamide], the inhibition at 10 µM was determined as 24.3 ± 2.77% in data set [1]; 30.3 ± 12.6% in data set [2]; 11.9 ± 2.21% in [3]; 27.1 ± 1.87% in data set [4]; 33 ± 1.46% in data set [6]. Moreover, the IC50 was determined as 18.8 ± 2.92 µM in [1], 31.9 ± 18 µM in data set [2], 61.3 ± 17 µM in [3] and 33.7 ± 3.54 µM in data set [4]. Further, the IC50 at 48 h in [5] came out at 63.7 ± 6.51 µM. The “antiproliferative activity in words” value in data set [11] is given as “quite weak antiproliferative activity”.

With `O=C(CSc1nnc(-c2ccccc2F)s1)Nc1cc(-c2c[nH]c3ccccc23)n[nH]1` [Compound 10g, N-(3-(1H-indol-3-yl)-1H-pyrazol-5-yl)-2-((5-(2-fluorophenyl)-1,3,4-thiadiazol-2-yl)thio)acetamide], the inhibition at 10 µM is 55.2 ± 3.17% in [1]; 96.4 ± 2.21% in data set [2]; 56.9 ± 9.69% in [3]; 97.4 ± 0.838% in data set [4]; 68.1 ± 4.49% in [6]. The IC50 in data set [1] turned out to be 14.2 ± 1.61 µM; in data set [2], 2.98 ± 0.28 µM; in [3], 11.8 ± 2.02 µM; in data set [4], 3.32 ± 0.09 µM. Also, the IC50 at 48 h in data set [5] is 10.1 ± 2.2 µM. In addition, in data set [11], the “antiproliferative activity in words” value is “quite weak antiproliferative activity”.

With `Nn1c(SCC(=O)Nc2cc(-c3c[nH]c4ccccc34)n[nH]2)nnc1-c1ccc(F)cc1` [Compound 11p, N-(3-(1H-indol-3-yl)-1H-pyrazol-5-yl)-2-((4-amino-5–(4-fluorophenyl)-4H-1,2,4-triazol-3-yl)thio)acetamide], the melting point (in general, the temperature of the solid-liquid transition) was in the range of 209 to 212 °C. Moreover, in data set [1], the inhibition at 10 µM is 23.9 ± 3.03% and the IC50 amounted to 93.9 ± 7.47 µM. Also, in data set [2], the IC50 worked out at 33.3 ± 5.94 µM and the inhibition at 10 µM worked out at 17.1 ± 1.22%. In data set [3], the inhibition at 10 µM was 22.8 ± 2.22% and the IC50 stood at 19.3 ± 6.15 µM. In addition, in [4], the inhibition at 10 µM amounted to 11.7 ± 0.639% and the IC50 came out at 33.2 ± 4.95 µM. Also, the IC50 at 48 h in data set [5] was 28.9 ± 0.52 µM. Moreover, the inhibition at 10 µM in [6] was 5.33 ± 14.9%.

`Nn1c(SCC(=O)Nc2cc(-c3c[nH]c4ccccc34)n[nH]2)nnc1-c1ccccc1O` [Compound 11q, N-(3-(1H-indol-3-yl)-1H-pyrazol-5-yl)-2-((4-amino-5–(2-hydroxyphenyl)-4H-1,2,4-triazol-3-yl)thio)acetamide] gave a melting point of 263 to 266 °C. Moreover, in data set [1], the inhibition at 10 µM was 89.4 ± 2.21% and the IC50 came to 4.14 ± 1.71 µM. For the same compound, in data set [2], the IC50 amounted to 2.89 ± 0.15 µM and the inhibition at 10 µM worked out at 86.3 ± 0.332%. Further, in data set [3], the inhibition at 10 µM was 84.7 ± 11.4% and the IC50 amounted to 8.23 ± 7.58 µM. Moreover, in data set [4], the inhibition at 10 µM amounted to 99.2 ± 1.2% and the IC50 was found to be 2.34 ± 0.34 µM. Also, the IC50 at 48 h in data set [5] was 2.66 ± 1.29 µM. In [6], the inhibition at 10 µM was determined as 99.3 ± 0.02%.

As for `Nn1c(SCC(=O)Nc2cc(-c3c[nH]c4ccccc34)n[nH]2)nnc1-c1ccc[nH]1` [Compound 11r, N-(3-(1H-indol-3–yl)-1H-pyrazol-5-yl)-2-((4-amino-5-(1H-pyrrol-2-yl)-4H-1,2,4-triazol-3-yl)thio)acetamide], the melting point was in the range of 241 to 243 °C. In data set [1], the inhibition at 10 µM worked out at 94.2 ± 1.81% and the IC50 turned out to be 2.72 ± 0.26 µM. Also, in data set [2], the IC50 was 2.73 ± 1.05 µM and the inhibition at 10 µM was determined as 79.4 ± 9.21%. Besides, in data set [3], the inhibition at 10 µM was 96.5 ± 1.22% and the IC50 came out at 1.75 ± 0.07 µM. In addition, in data set [4], the inhibition at 10 µM came out at 95 ± 2.52% and the IC50 came to 1.84 ± 0.66 µM. Besides, the IC50 at 48 h in [5] is 1.53 ± 0.93 µM. For the same compound, in [6], the inhibition at 10 µM turned out to be 72.3 ± 5.76%.
